According to ChEMBL document CHEMBL1135570, “Acyclic analogues of adenosine bisphosphates as P2Y receptor antagonists: phosphate substitution leads to multiple pathways of inhibition of platelet aggregation” (J Med Chem, 2002):

Organism: Rattus norvegicus
Experiment: Inhibition of ADP-induced activation of rat platelets using aggregometry
Assay type: functional

Row | SMILES | Ki
1 | CNc1ncnc2c1ncn2CC(COP(=O)(O)O)COP(=O)(O)O | 0.51 µM
2 | CNc1nc(Cl)nc2c1ncn2CC(COC(=O)c1ccccc1)COC(=O)c1ccccc1 | 5.1 µM
3 | CNc1nc(Cl)nc2c1ncn2CCC(COP(=O)(O)O)COP(=O)(O)O | 0.46 µM
4 | CNc1nc(Cl)nc2c1ncn2CC(CP(=O)(O)O)CP(=O)(O)O | 0.68 µM
5 | CNc1nc(Cl)nc2c1ncn2C(COP(=O)(O)O)COP(=O)(O)O | 5.5 µM
6 | CNc1nc(Cl)nc2c1ncn2CC(COC(=O)C(C)(C)C)COC(=O)C(C)(C)C | 3.6 µM
7 | CNc1nc(Cl)nc2c1ncn2CC(COC(=O)C(C)(C)C)COP(=O)(O)O (stereo not drawn) | 29 µM
8 | CNc1nc(Cl)nc2c1ncn2CC(COC(=O)Cc1ccccc1)COC(=O)Cc1ccccc1 | 2 µM
9 | CNc1nc(Cl)nc2c1ncn2[C@H]1CC(O)[C@]2(COP(=O)(O)O)CC12 (stereo partly drawn) | 33 µM
10 | CNc1nc(Cl)nc2c1ncn2CC(COC(=S)SCc1ccccc1)COC(=S)SCc1ccccc1 | 87 µM
11 | CNc1nc(Cl)nc2c1ncn2[C@H]1C[C@@H](OP(=O)(O)O)[C@@H](COP(=O)(O)O)O1 | 0.42 µM
12 | CCC(=O)OCC(COC(=O)CC)Cn1cnc2c(NC)nc(Cl)nc21 | 23 µM
13 | CCC(=O)OCC(COP(=O)(O)O)Cn1cnc2c(NC)nc(Cl)nc21 (stereo not drawn) | 21 µM
14 | CNc1nc(Cl)nc2c1ncn2[C@H]1CC(OP(=O)(O)O)[C@]2(CO)CC12 (stereo partly drawn) | 29 µM
15 | CNc1nc(Cl)nc2c1ncn2CC(COC(=O)c1c(F)cccc1F)COC(=O)c1c(F)cccc1F | 33 µM
16 | CCNC(=O)O[C@@H]1CC(n2cnc3c(NC)nc(Cl)nc32)O[C@@H]1COP(=O)(O)O (stereo partly drawn) | 11 µM
17 | CNc1nc(Cl)nc2c1ncn2[C@H]1CC(OC(C)=O)[C@]2(COP(=O)(O)O)CC12 (stereo partly drawn) | 10 µM
18 | CNc1nc(Cl)nc2c1ncn2CC(COP(=O)(O)O)COP(=O)(O)O | 0.3 µM
19 | CNc1nc(Cl)nc2c1ncn2[C@H]1CC(OP(=O)(O)O)[C@]2(COC(C)=O)CC12 (stereo partly drawn) | 16 µM

Row | SMILES | Ki
20 | CNc1nc(Cl)nc2c1ncn2CC(COP(=O)(O)OP(=O)(O)O)CP(=O)(O)O (stereo not drawn) | 1.1 µM
21 | CNc1nc(Cl)nc2c1ncn2CC(CCCP(=O)(O)O)CCCP(=O)(O)O | 25 µM
22 | CNc1nc(Cl)nc2c1ncn2C[C@H](COP(=O)(O)O)OP(=O)(O)O | 2.6 µM
23 | CNc1nc(Cl)nc2c1ncn2CC(COC(=O)c1ccccc1F)COC(=O)c1ccccc1F | 24 µM
24 | CNc1nc(Cl)nc2c1ncn2C[C@@H](COP(=O)(O)O)OP(=O)(O)O | 1.4 µM
25 | CNc1nc(Cl)nc2c1ncn2CC(COC(C)=O)COC(=O)c1ccccc1 (stereo not drawn) | 6.9 µM
26 | CNc1nc(Cl)nc2c1ncn2CC(COC(=O)Nc1ccccc1)COC(=O)Nc1ccccc1 | 24 µM
27 | CNc1nc(Cl)nc2c1ncn2CC(COC(=O)Oc1ccccc1)COC(=O)Oc1ccccc1 | 26 µM
28 | CNc1nc(Cl)nc2c1ncn2[C@H]1C[C@@H](OP(=O)(O)O)[C@]2(COP(=O)(O)O)C[C@H]12 | 0.031 µM
29 | CNc1nc(Cl)nc2c1ncn2CC(COC(=O)Nc1ccccc1)COP(=O)(O)O (stereo not drawn) | 2.5 µM
30 | CNc1nc(Cl)nc2c1ncn2CC(COC(C)=O)COP(=O)(O)O (stereo not drawn) | 110 µM
31 | CNc1nc(Cl)nc2c1ncn2CC(COC(=O)CCC(=O)O)COC(=O)CCC(=O)O | 18 µM
32 | CNc1nc(Cl)nc2c1ncn2CC(COC(C)=O)COC(C)=O | 18 µM
33 | C/C=C\C(=O)OCC(COC(=O)/C=C/C)Cn1cnc2c(NC)nc(Cl)nc21 (stereo not drawn) | 10 µM
34 | CNc1nc(Cl)nc2c1ncn2C1C[C@@H](OC(=O)NC(C)C)[C@@H](COP(=O)(O)O)O1 (stereo partly drawn) | 6.4 µM
35 | CNc1ncnc2c1ncn2[C@H]1C[C@H](OP(=O)(O)O)[C@@H](COP(=O)(O)O)O1 | 0.58 µM
36 | CNc1nc(Cl)nc2c1ncn2[C@H]1CC(OC(C)=O)[C@]2(COC(C)=O)CC12 (stereo partly drawn) | 29 µM
37 | CNc1nc(Cl)nc2c1ncn2CC(COC(=O)c1ccccc1)COP(=O)(O)O (stereo not drawn) | 18 µM
38 | CNc1nc(Cl)nc2c1ncn2CC(COC(C)=O)COC(=O)Cc1ccccc1 (stereo not drawn) | 12.3 µM
